# Entries after “also recorded” stand apart in the source; their conditions may differ. Bridge positions count the residues as written; N and C are the ends. Square brackets hold non-standard residues; d marks the D form. Peptide text beside a SMILES is read from it. hArg = N=C(N)NCCCC[C@H](N)C(=O)O; Ac5c = NC1(C(=O)O)CCCC1; Aib = CC(C)(N)C(=O)O
# What was measured:
# PTH receptor 1 = biological target: T1, PTH receptor 1 (Mus musculus, UniProt P41593); assay: MC3T3-E1 cAMP efficacy assay; assay type: cell-based, murine; details: MC3T3-E1 cells; for EC50: 100 μM IBMX, 37° C.; for Emax ± SEM [pmol/well]: maximally inducible cAMP
# T1 construct: host or cells: MC3T3-E1 subclone 4
# T1 sequence (P41593 27-591): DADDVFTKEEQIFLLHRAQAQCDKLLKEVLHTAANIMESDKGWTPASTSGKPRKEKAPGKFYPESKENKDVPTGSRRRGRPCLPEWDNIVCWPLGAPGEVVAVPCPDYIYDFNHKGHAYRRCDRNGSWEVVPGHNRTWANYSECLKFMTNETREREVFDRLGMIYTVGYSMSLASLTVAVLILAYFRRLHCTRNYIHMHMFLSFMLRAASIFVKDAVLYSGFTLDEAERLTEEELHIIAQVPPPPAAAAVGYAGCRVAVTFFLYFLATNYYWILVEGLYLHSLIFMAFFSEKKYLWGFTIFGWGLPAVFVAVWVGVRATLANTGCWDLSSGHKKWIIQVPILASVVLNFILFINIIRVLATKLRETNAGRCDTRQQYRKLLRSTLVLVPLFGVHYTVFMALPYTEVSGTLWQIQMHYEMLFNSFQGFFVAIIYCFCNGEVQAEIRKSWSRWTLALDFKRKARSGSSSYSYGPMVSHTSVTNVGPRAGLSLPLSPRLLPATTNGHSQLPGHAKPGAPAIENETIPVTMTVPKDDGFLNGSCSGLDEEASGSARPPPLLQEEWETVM
# Experimental: MC3T3-E1 cells were seeded at 10,000 cells/well in 96-microtiter plates and grown overnight before the efficacy assays. On the day of analysis the growth medium was carefully removed by suction. Cells were washed once with 200 μl TB/0.1% […]. The buffer was replaced with 100 μl reaction mixture (±test peptide, +100 μM IBMX) and incubated at 37° C. for 13 min. The reaction was stopped by addition of 25 μl of ice-cold 0.5 M HCl. Cells were in the following incubated on ice for 60 min. 75 μl acetate-buffer were added to each well in a 96-well cAMP FlashPlate. […] FlashPlates were incubated overnight at 4° C., emptied by suction and counted in a TopCounter.
# Determinations were performed in triplicates at all doses. Standards were included as single determinations, duplicates or triplicates in each experiment, preferentially on each plate.
# Efficacy was evaluated in the concentration range from […].
# Concentration-dependent cAMP responses were imported into GraphPad Prism vers. 4, transformed and plotted. Curves were fitted with a function for sigmoidal dose response curve non-linear fit Y=Bottom+(Top-Bottom)/(1+10̂((LogEC50-X))) where X is the logarithm of concentration and Y is the response. Y starts at Bottom and goes to Top with a sigmoid shape. pEC50 and the maximally inducible concentration of cAMP were evaluated. Overall statistical differences were analyzed using one-way ANOVA. Post-hoc comparisons were made by the use of Fisher's Least Significance Test. Results were considered significant, when p was lower than 0.05.
# Saos-2 PTH1R = biological target: T2, Saos-2 PTH1R (Homo sapiens, UniProt Q03431); assay: cAMP-efficacy assay in Saos-2 cells; assay type: cell-based; details: for potency compared to linear / non-stabilized counterparts, in words / EC50: cAMP; for EC50: 100 μM IBMX, 37° C. 15 min, suffix of label = salt tested; for Emax ± SEM: relative effect to the control (SEQ ID NO: 32)
# T2 construct: endogenous in cells; host or cells: Saos-2
# T2 sequence (Q03431 27-593): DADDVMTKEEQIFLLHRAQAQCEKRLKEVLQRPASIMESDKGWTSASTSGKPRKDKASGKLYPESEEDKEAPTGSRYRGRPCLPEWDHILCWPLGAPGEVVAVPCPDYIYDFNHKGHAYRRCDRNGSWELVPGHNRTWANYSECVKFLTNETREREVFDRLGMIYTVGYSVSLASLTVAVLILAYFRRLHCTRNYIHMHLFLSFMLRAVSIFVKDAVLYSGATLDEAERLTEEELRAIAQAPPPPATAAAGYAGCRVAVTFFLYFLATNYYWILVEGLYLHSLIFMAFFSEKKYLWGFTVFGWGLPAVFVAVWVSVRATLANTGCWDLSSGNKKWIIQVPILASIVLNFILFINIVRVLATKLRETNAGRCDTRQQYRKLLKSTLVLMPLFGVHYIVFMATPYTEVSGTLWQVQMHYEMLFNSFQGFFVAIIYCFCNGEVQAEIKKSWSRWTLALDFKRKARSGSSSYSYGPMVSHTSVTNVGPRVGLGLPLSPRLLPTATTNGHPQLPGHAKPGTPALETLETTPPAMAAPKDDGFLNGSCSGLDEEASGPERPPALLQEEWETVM
# Outline: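 Saos-2 cells, grown two days after seeding at 50,000 cells/well, were exposed to peptide for 15 min at 37 °C in Tyrode's buffer with 0.1% BSA and 100 μM IBMX. After stopping with cold HCl, cAMP was measured by radioimmunoassay FlashPlate. EC50, pEC50, Hill slope and Emax came from a four-parameter sigmoidal fit.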
# CYP2D6 = CYP2D6 (Homo sapiens, UniProt P10635); assay: CYP2D6 inhibition in pooled human liver microsomes; assay type: in vitro ADME; parameters: Pooled human liver microsomes (HLM, final concentration 0.05 mg protein/mL); tissue BD Biosciences 452161; host or cells: pooled human liver microsomes; details: 10 μM compound, dextrorphan formation rate
# CYP2D6, sequence (P10635 whole entry): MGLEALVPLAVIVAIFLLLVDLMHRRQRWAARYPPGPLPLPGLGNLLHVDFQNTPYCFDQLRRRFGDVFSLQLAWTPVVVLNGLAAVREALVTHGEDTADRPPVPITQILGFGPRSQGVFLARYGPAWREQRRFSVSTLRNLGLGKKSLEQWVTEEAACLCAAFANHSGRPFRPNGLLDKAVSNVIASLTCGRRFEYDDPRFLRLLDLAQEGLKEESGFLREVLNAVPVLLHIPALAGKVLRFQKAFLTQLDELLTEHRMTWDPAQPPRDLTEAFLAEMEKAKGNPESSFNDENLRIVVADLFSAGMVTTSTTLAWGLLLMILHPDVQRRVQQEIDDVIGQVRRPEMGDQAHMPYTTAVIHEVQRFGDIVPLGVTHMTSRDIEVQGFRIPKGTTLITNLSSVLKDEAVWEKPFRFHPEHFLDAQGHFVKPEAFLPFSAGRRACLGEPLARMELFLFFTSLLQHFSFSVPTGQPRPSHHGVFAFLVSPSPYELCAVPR
# Outline: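 Pooled HLM (0.05 mg/mL) in 0.1 M KPi pH 7.4 with 5 μM dextromethorphan and 10 μM test compound, preincubated 5 min at 37 °C, then started with NADPH-regenerating system for 5 min. Dextrorphan quantified by LC/MS/MS; activity expressed as % of vehicle; <70% considered significant.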
Compound,potency comparison in words (PTH receptor 1; cAMP),EC50 (PTH receptor 1; cAMP) [nM],Emax ± SEM [pmol/well] (PTH receptor 1),"potency compared to linear / non-stabilized counterparts, in words (Saos-2 PTH1R)","potency compared to linear / non-stabilized counterparts, in words (Saos-2 PTH1R; listed as 2)","potency compared to linear / non-stabilized counterparts, in words (Saos-2 PTH1R; listed as SEQ ID NO:2)",CYP2D6 activity (% of vehicle) (CYP2D6),EC50 (Saos-2 PTH1R) [nM],Emax ± SEM (Saos-2 PTH1R)
"CC[C@H](C)[C@H](NC(=O)[C@H](CCC(=O)O)NC(=O)C(C)(C)NC(=O)[C@@H](NC(=O)C1(N)CCCC1)C(C)C)C(=O)N[C@@H](CCC(N)=O)C(=O)N[C@@H](CC(C)C)C(=O)N[C@@H](CCSC)C(=O)N[C@@H](Cc1c[nH]cn1)C(=O)N[C@@H](CCC(N)=O)C(=O)N[C@@H](CCCCNC(=N)N)C(=O)N[C@@H](C)C(=O)N[C@H]1CCCCNC(=O)C[C@@H](C(N)=O)NC(=O)[C@H](CC(N)=O)NC(=O)[C@H](CC(C)C)NC(=O)[C@H](Cc2c[nH]c3ccccc23)NC1=O [SEQ ID NO: 2, H-Ac5c-Val-Aib-Glu-Ile-Gln-Leu-Met-His-Gln-Har-Ala-Lys( )Trp-Leu-Asn-Asp( )-NH2] (H-[Ac5c]V[Aib]EIQLMHQ[hArg]AKWLND-NH2; lactam 13-17)","EC50 comparable to PTH(1-34); also recorded: significantly more potent than SEQ ID NO: 31, SEQ ID NO: 3 and SEQ ID NO: 42",1,4.9 ± 0.8,significantly higher potency,increased potencies,significantly higher potency,67 % of vehicle,,
"CC[C@H](C)[C@H](NC(=O)[C@H](CCC(=O)O)NC(=O)C(C)(C)NC(=O)[C@@H](NC(=O)C1(N)CCCC1)C(C)C)C(=O)N[C@@H](CCC(N)=O)C(=O)N[C@@H](CC(C)C)C(=O)N[C@@H](CCSC)C(=O)N[C@@H](Cc1c[nH]cn1)C(=O)N[C@@H](CCC(N)=O)C(=O)N[C@@H](CCCCNC(=N)N)C(=O)N[C@@H](C)C(=O)N[C@@H](CCCCN)C(=O)N[C@@H](Cc1c[nH]c2ccccc12)C(=O)N[C@@H](CC(C)C)C(=O)N[C@@H](CC(N)=O)C(=O)N[C@@H](CC(N)=O)C(N)=O [SEQ ID NO: 3, H-Ac5c-Val-Aib-Glu-Ile-Gln-Leu-Met-His-Gln-Har-Ala-Lys-Trp-Leu-Asn-Asn-NH2] (H-[Ac5c]V[Aib]EIQLMHQ[hArg]AKWLNN-NH2)",,2.51,5.5 ± 0.9,,,,21 % of vehicle,9.12,1.06 ± 0.06
"CC[C@H](C)[C@H](NC(=O)[C@H](CCC(=O)O)NC(=O)C(C)(C)NC(=O)[C@@H](NC(=O)C1(N)CCCC1)C(C)C)C(=O)N[C@@H](CCC(N)=O)C(=O)N[C@@H](CC(C)C)C(=O)N[C@@H](CCSC)C(=O)N[C@@H](Cc1c[nH]cn1)C(=O)N[C@@H](CCC(N)=O)C(=O)N[C@@H](CCCCNC(=N)N)C(=O)N[C@@H](C)C(=O)N[C@H]1CCCCNC(=O)C[C@@H](C(N)=O)NC(=O)[C@H](CC(C)C)NC(=O)[C@H](Cc2c[nH]c3ccccc23)NC1=O [SEQ ID NO: 30, H-Ac5c-Val-Aib-Glu-Ile-Gln-Leu-Met-His-Gln-Har-Ala-Lys( )-Trp-Leu-Asp( )-NH2] (H-[Ac5c]V[Aib]EIQLMHQ[hArg]AKWLD-NH2; lactam 13-16)",,10,5.0 ± 0.2,,,,83 % of vehicle,81.3,1.04 ± 0.05
